Measured values from US9861616B2, “Methods for treating respiratory diseases and formulations therefor” (priority 2013, dated 2018).

Columns and labels:
P. aeruginosa (PA) = test: MIC by microdilution, 36 clinical and laboratory strains with known efflux phenotype; assay type: cell-based
Procedure: MICs of 36 clinical and laboratory strains of PA with known efflux phenotype are measured by microdilution in cation-adjusted Muller-Hinton broth (CA-MHB) or in RPMI medium (commonly used in eukaryotic cell culture). Phe-Arg-β-naphthylamide (PaβN, 50 mg/L) and EGTA 5 mM are used to inhibit efflux pumps and alter OM integrity, respectively. P. aeruginosa strain ATCC PAO1 is used as reference. PA12 is a clinical strain overexpressing the 4 main efflux systems (MexAB, MexCD, MexEF, MexXY), PA403 is a laboratory strain deleted in the genes coding for the 4 efflux systems. A series of reference strains or of clinical isolates for which the expression of genes coding for efflux pumps is known is also used for MICs determinations. MICs are measured by microdilution in MH broth or in RPMI medium (used for eukaryotic cells culture) supplemented with 10% of fetal calf serum, or in MH broth supplemented by increasing amounts of serum. EGTA (5 mM) was used as a chelating agent (disrupting outer membrane integrity) and PaβN (50 mg/L) as an unspecific efflux inhibitor.

[1] = system: MRSA strains from CF patients; test: Microdilution MICs against 40 MRSA strains from CF patients; assay type: cell-based, S. aureus
Procedure: Two strains each of mucoid P. aeruginosa (both pyocyanin positive) and […] MRSA (only one strain with gold colonies) isolated from patients at a CF clinic were tested. Additionally, 2 B. cepacia strains were acquired, from Hershey Medical Center. All strains were identified by standard methods. Only one strain per patient was tested. MLVA was done on all strains to examine clonality, and confirmed that examination is not taking place on only one or a few clones. Strains will be stored in skim milk at −70° C. until use.
Original MICs of each strain to CEM-101 and other comparators were tested by CLSI microdilution methodology. Trays were obtained from Trek, Inc., Cleveland, Ohio. Time-kill macrobroth MIC dilution by CLSI was performed for all synergy testing.

MMP9 activity = test: PMA-induced MMP9 activation in U937 cells (gelatin zymography); assay type: cell-based, human; details: read-out: IC50, PMA-induced MMP9 activation
Procedure: Effects of macrolides on phorbol 12-myristate 13-acetate (PMA)-induced MMP9 activation in U937 cells. […] After 48 h supernatants were collected for zymography. MMP9 enzyme activity was measured by gelatin zymography. Data are expressed relative to standard.
The human monocytic cell line U937 was obtained from the American Type Culture Collection (ATCC, Rockville, Md.). PBMCs from COPD patients were obtained from Brompton hospital and separated by AccuSPIN (Sigma-Aldrich). Cells were cultured in complete growth medium (RPMI 1640) (Sigma-Aldrich) supplemented with 10% fetal bovine serum (FBS) and 1% L-glutamine at 37° C. in a humidified atmosphere with 5% CO2. U937 cells were differentiated into adherent macrophage-like morphology by exposure to PMA (50 ng/mL) for 48 hrs in complete growth medium. Cell viability was assessed microscopically by trypan blue staining. Cell toxicity was determined by MTT assay as needed. This study was approved by the ethics committee of the Royal Brompton Hospitals, and all subjects gave written informed consent.
MMP9 enzyme activity was measured by gelatin zymography. Cell culture supernatants were diluted with equal amount of Laemli sample buffer (Bio-Rad, Hertfordshire, UK) and loaded on a Novex® 10% Zymogram (Gelatin) gel (Invitrogen Ltd, Paisley, UK). After electrophoresis, gels were incubated and rinsed with Novex® zymogram renaturing buffer (Invitrogen) for 30 min at room temperature. The gels were then rinsed in Novex® zymogram developing buffer (Invitrogen) for 30 min at room temperature prior to overnight incubation in the developing buffer at 37° C. After incubation, the gels were stained using a Colloidal Blue Staining Kit (Invitrogen) to visualize the zymogen bands.
The results were expressed as the mean±SEM. Comparisons of data in two groups were performed using the Student's t test or the Wilcoxon signed rank test. Multiple comparisons were made by one-way ANOVA with post hoc test (Dunnett's) as appropriate. The difference was considered significant at p<0.05. IC50 values (50% inhibitory concentration) for macrolides for production of cytokines or MMP9 were calculated using Prism 4.0 (GraphPad Software Inc., San Diego, Calif.).

[2] = 40 MRSA strains from CF patients

CC[C@H]1OC(=O)[C@@](C)(F)C(=O)[C@H](C)[C@@H](O[C@@H]2O[C@H](C)C[C@H](N(C)C)[C@H]2O)[C@](C)(OC)C[C@@H](C)C(=O)[C@H](C)[C@H]2N(CCCCn3cc(-c4cccc(N)c4)nn3)C(=O)O[C@]12C [CEM-101, solithromycin]
0.06 to 0.25 µg/mL: MICs against the strains it was active against ([1]; 21 of the 40 MRSA strains)
16 mg/L: MIC (P. aeruginosa (PA); strain 11, efflux AB + CD+, MHB) | MIC (P. aeruginosa (PA); strain 392, efflux CD−, MHB)
14.9 ± 3.1 µM: IC50 (MMP9 activity)
128 mg/L: MIC (P. aeruginosa (PA); strain 1, efflux AB+, MHB) | MIC (P. aeruginosa (PA); strain 4, efflux XY+, MHB) | MIC (P. aeruginosa (PA); strain 12, efflux AB + CD + EF + XY+, MHB) | MIC (P. aeruginosa (PA); strain 21, efflux AB+, MHB) | MIC (P. aeruginosa (PA); strain 48, efflux CD + EF + XY+, MHB) | MIC (P. aeruginosa (PA); strain 49, efflux CD + EF + XY+, MHB) | MIC (P. aeruginosa (PA); strain 168B, efflux CD + XY+, MHB) | MIC (P. aeruginosa (PA); strain 333A, efflux AB + EF+, MHB) | MIC (P. aeruginosa (PA); strain 335, efflux AB + EF+, MHB) | MIC (P. aeruginosa (PA); strain 434, efflux AB + CD + XY+, MHB) | MIC (P. aeruginosa (PA); strain PAO1, REFERENCE, MHB)
52.5%: share of strains against which active ([1]; 21 of the 40 MRSA strains, MICs 0.06-0.25)
256 mg/L: MIC (P. aeruginosa (PA); strain 2, efflux CD+, MHB) | MIC (P. aeruginosa (PA); strain 41, efflux CD+, MHB) | MIC (P. aeruginosa (PA); strain 266B, efflux AB + CD+, MHB)
4 mg/L: MIC (P. aeruginosa (PA); strain 4, efflux XY+, RPMI) | MIC (P. aeruginosa (PA); strain 12, efflux AB + CD + EF + XY+, RPMI) | MIC (P. aeruginosa (PA); strain 16, efflux AB + XY+, RPMI) | MIC (P. aeruginosa (PA); strain 21, efflux AB+, RPMI) | MIC (P. aeruginosa (PA); strain 22, efflux XY+, RPMI) | MIC (P. aeruginosa (PA); strain 40, efflux EF+, RPMI) | MIC (P. aeruginosa (PA); strain 41, efflux CD+, RPMI) | MIC (P. aeruginosa (PA); strain 48, efflux CD + EF + XY+, RPMI) | MIC (P. aeruginosa (PA); strain 49, efflux CD + EF + XY+, RPMI) | MIC (P. aeruginosa (PA); strain 63, efflux AB + EF + XY+, RPMI) | MIC (P. aeruginosa (PA); strain 68, efflux AB + XY+, RPMI) | MIC (P. aeruginosa (PA); strain 133, efflux EF + XY+, RPMI) | MIC (P. aeruginosa (PA); strain 168B, efflux CD + XY+, RPMI) | MIC (P. aeruginosa (PA); strain 207, efflux AB + EF + XY+, RPMI) | MIC (P. aeruginosa (PA); strain 266B, efflux AB + CD+, RPMI) | MIC (P. aeruginosa (PA); strain 394, efflux XY−, RPMI) | MIC (P. aeruginosa (PA); strain 398, efflux CD−, MHB) | MIC (P. aeruginosa (PA); strain 400, efflux XY−, MHB) | MIC (P. aeruginosa (PA); strain 403, efflux AB − CD − EF − XY−, MHB) | MIC (P. aeruginosa (PA); strain 405, efflux AB − CD − EF − XY−, MHB) | MIC (P. aeruginosa (PA); strain PAO1, REFERENCE, RPMI)
0.25 mg/L: MIC50 [1, 2]
smaller difference: difference in MIC in the presence of efflux pump inhibitors (P. aeruginosa (PA); compared with the other macrolides, Table 2 strains)
≧16 μg/mL: MIC90 [1, 2]
8 mg/L: MIC (P. aeruginosa (PA); strain 2, efflux CD+, RPMI) | MIC (P. aeruginosa (PA); strain 3, efflux EF+, MHB) | MIC (P. aeruginosa (PA); strain 396, ompH−, MHB) | MIC (P. aeruginosa (PA); strain 399, efflux AB − EF−, MHB) | MIC (P. aeruginosa (PA); strain 434, efflux AB + CD + XY+, RPMI)
2 mg/L: MIC (P. aeruginosa (PA); strain 1, efflux AB+, RPMI) | MIC (P. aeruginosa (PA); strain 11, efflux AB + CD+, RPMI) | MIC (P. aeruginosa (PA); strain 156, efflux EF + XY+, RPMI) | MIC (P. aeruginosa (PA); strain 333A, efflux AB + EF+, RPMI) | MIC (P. aeruginosa (PA); strain 335, efflux AB + EF+, RPMI) | MIC (P. aeruginosa (PA); strain 391, efflux EF−, RPMI) | MIC (P. aeruginosa (PA); strain 395, efflux HI−, RPMI) | MIC (P. aeruginosa (PA); strain 396, ompH−, RPMI) | MIC (P. aeruginosa (PA); strain 397, efflux AB−, MHB) | MIC (P. aeruginosa (PA); strain 398, efflux CD−, RPMI) | MIC (P. aeruginosa (PA); strain 401, ompH−, MHB) | MIC (P. aeruginosa (PA); strain 401, ompH−, RPMI)
1 mg/L: MIC (P. aeruginosa (PA); strain 3, efflux EF+, RPMI) | MIC (P. aeruginosa (PA); strain 392, efflux CD−, RPMI) | MIC (P. aeruginosa (PA); strain 397, efflux AB−, RPMI) | MIC (P. aeruginosa (PA); strain 399, efflux AB − EF−, RPMI) | MIC (P. aeruginosa (PA); strain 400, efflux XY−, RPMI) | MIC (P. aeruginosa (PA); strain 403, efflux AB − CD − EF − XY−, RPMI) | MIC (P. aeruginosa (PA); strain 405, efflux AB − CD − EF − XY−, RPMI)
≥ 16 µg/mL: MICs against the remaining organisms ([1]; remaining 19 of 40 MRSA strains)
64 mg/L: MIC (P. aeruginosa (PA); strain 22, efflux XY+, MHB) | MIC (P. aeruginosa (PA); strain 63, efflux AB + EF + XY+, MHB) | MIC (P. aeruginosa (PA); strain 68, efflux AB + XY+, MHB) | MIC (P. aeruginosa (PA); strain 133, efflux EF + XY+, MHB) | MIC (P. aeruginosa (PA); strain 156, efflux EF + XY+, MHB) | MIC (P. aeruginosa (PA); strain 395, efflux HI−, MHB)
32 mg/L: MIC (P. aeruginosa (PA); strain 16, efflux AB + XY+, MHB) | MIC (P. aeruginosa (PA); strain 40, efflux EF+, MHB) | MIC (P. aeruginosa (PA); strain 207, efflux AB + EF + XY+, MHB) | MIC (P. aeruginosa (PA); strain 391, efflux EF−, MHB) | MIC (P. aeruginosa (PA); strain 394, efflux XY−, MHB)
